Legend:
Test in all cases: radiometric filter-binding kinase assay, Kinase HotSpot
Conditions in all cases: compound 0.5 µM; ATP 10 µM
PRKD1 (human) = PRKD1 (human) (UniProt Q15139)
[1] = target: TYK2 JH1 catalytic (human) (UniProt P29597)
MAP3K10 (human) = MAP3K10 (human) (UniProt Q02779)
NEK9 (human) = NEK9 (human) (UniProt Q8TD19)
SRPK2 (human) = SRPK2 (human) (UniProt P78362)
MAPK1 (human) = MAPK1 (human) (UniProt P28482)
OXSR1 (human) = OXSR1 (human) (UniProt O95747)
MAPKAPK3 (human) = MAPKAPK3 (human) (UniProt Q16644)
CAMK4 (human) = CAMK4 (human) (UniProt Q16566)
CAMK1D (human) = CAMK1D (human) (UniProt Q8IU85)
STK10 (human) = STK10 (human) (UniProt O94804)
MST1R (human) = MST1R (human) (UniProt Q04912)
GSK3A (human) = GSK3A (human) (UniProt P49840)
STK25 (human) = STK25 (human) (UniProt O00506)
CDK5 CDK5R1 p35 (human) = CDK5 CDK5R1 p35 (human) (UniProt Q00535+Q15078)
STK17A (human) = STK17A (human) (UniProt Q9UEE5)
HIPK4 (human) = HIPK4 (human) (UniProt Q8NE63)
YES1 (human) = YES1 (human) (UniProt P07947)
PRKCD (human) = PRKCD (human) (UniProt Q05655)
ROCK2 (human) = ROCK2 (human) (UniProt O75116)
MAP2K2 (human) = MAP2K2 (human) (UniProt P36507)
PRKCA (human) = PRKCA (human) (UniProt P17252)
CSNK1G3 (human) = CSNK1G3 (human) (UniProt Q9Y6M4)
ULK2 (human) = ULK2 (human) (UniProt Q8IYT8)
TSSK1B (human) = TSSK1B (human) (UniProt Q9BXA7)
NLK (human) = NLK (human) (UniProt Q9UBE8)
TXK (human) = TXK (human) (UniProt P42681)
PDGFRB (human) = PDGFRB (human) (UniProt P09619)
CDK4 CCND1 (human) = CDK4 CCND1 (human) (UniProt P24385+P11802)
DYRK3 (human) = DYRK3 (human) (UniProt O43781)
NEK11 (human) = NEK11 (human) (UniProt Q8NG66)
FGFR4 (human) = FGFR4 (human) (UniProt P22455)
CSNK1D (human) = CSNK1D (human) (UniProt P48730)
CSNK2A2 (human) = CSNK2A2 (human) (UniProt P19784)
PHKG1 (human) = PHKG1 (human) (UniProt Q16816)
PKN1 (human) = PKN1 (human) (UniProt Q16512)
RPS6KB2 (human) = RPS6KB2 (human) (UniProt Q9UBS0)
MAPK3 (human) = MAPK3 (human) (UniProt P27361)
SRMS (human) = SRMS (human) (UniProt Q9H3Y6)
CAMKK1 (human) = CAMKK1 (human) (UniProt Q8N5S9)
PTK2 (human) = PTK2 (human) (UniProt Q05397)
EPHA2 (human) = EPHA2 (human) (UniProt P29317)

Chain of PDGFRB (human) (P09619 whole entry, looked up): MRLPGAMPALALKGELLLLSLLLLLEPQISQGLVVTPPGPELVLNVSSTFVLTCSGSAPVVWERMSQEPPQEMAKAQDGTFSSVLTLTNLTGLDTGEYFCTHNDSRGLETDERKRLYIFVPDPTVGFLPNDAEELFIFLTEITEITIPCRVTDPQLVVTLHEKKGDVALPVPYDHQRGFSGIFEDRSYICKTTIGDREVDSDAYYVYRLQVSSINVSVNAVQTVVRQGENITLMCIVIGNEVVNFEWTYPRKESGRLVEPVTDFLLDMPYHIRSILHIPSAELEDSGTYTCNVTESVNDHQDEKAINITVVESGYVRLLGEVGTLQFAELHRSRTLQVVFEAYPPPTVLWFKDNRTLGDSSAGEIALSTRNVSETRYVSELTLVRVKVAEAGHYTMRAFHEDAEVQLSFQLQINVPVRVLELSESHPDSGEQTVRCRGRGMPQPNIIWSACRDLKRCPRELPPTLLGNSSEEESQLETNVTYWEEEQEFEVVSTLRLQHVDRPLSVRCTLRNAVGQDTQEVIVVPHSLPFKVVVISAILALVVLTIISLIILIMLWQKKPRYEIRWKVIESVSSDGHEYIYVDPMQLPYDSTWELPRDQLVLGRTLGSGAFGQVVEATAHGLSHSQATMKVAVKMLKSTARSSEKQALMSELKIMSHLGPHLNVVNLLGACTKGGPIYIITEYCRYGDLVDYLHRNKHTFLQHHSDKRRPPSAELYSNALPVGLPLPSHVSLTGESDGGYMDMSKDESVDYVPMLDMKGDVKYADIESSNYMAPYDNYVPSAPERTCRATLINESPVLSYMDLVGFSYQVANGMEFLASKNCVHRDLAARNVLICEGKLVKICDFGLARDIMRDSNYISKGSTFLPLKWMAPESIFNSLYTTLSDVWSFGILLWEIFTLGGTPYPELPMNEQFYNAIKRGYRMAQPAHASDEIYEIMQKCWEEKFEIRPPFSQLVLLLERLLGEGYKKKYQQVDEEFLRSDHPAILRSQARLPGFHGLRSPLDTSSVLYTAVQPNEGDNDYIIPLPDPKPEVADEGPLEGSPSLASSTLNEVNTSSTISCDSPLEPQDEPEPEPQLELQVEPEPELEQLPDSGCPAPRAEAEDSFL
Chain of TXK (human) (P42681 whole entry, looked up): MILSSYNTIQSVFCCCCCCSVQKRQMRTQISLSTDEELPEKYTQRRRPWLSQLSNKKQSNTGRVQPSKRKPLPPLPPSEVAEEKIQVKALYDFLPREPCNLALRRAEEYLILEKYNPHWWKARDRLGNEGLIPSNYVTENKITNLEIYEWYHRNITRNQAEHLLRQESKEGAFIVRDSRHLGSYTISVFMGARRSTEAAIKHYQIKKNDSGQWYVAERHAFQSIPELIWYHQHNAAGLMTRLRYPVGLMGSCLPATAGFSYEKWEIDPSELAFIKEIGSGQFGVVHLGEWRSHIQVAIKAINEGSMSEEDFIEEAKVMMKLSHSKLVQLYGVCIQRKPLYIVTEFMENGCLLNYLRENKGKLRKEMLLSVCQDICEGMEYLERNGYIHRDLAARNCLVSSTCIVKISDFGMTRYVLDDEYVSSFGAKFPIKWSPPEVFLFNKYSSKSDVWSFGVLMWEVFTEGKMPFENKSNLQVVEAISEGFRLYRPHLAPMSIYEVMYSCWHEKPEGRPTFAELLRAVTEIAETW
Chain of MAPKAPK3 (human) (Q16644 whole entry, looked up): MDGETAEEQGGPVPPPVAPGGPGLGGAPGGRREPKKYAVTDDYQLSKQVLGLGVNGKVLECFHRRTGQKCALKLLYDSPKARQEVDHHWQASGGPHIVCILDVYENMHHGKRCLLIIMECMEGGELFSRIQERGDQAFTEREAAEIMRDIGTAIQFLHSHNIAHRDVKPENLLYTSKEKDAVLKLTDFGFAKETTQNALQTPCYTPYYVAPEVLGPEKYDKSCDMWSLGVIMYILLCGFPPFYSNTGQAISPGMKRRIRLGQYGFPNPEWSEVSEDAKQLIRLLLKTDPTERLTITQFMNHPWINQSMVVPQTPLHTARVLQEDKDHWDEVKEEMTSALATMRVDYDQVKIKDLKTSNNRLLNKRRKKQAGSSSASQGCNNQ
Chain of ULK2 (human) (Q8IYT8 whole entry, looked up): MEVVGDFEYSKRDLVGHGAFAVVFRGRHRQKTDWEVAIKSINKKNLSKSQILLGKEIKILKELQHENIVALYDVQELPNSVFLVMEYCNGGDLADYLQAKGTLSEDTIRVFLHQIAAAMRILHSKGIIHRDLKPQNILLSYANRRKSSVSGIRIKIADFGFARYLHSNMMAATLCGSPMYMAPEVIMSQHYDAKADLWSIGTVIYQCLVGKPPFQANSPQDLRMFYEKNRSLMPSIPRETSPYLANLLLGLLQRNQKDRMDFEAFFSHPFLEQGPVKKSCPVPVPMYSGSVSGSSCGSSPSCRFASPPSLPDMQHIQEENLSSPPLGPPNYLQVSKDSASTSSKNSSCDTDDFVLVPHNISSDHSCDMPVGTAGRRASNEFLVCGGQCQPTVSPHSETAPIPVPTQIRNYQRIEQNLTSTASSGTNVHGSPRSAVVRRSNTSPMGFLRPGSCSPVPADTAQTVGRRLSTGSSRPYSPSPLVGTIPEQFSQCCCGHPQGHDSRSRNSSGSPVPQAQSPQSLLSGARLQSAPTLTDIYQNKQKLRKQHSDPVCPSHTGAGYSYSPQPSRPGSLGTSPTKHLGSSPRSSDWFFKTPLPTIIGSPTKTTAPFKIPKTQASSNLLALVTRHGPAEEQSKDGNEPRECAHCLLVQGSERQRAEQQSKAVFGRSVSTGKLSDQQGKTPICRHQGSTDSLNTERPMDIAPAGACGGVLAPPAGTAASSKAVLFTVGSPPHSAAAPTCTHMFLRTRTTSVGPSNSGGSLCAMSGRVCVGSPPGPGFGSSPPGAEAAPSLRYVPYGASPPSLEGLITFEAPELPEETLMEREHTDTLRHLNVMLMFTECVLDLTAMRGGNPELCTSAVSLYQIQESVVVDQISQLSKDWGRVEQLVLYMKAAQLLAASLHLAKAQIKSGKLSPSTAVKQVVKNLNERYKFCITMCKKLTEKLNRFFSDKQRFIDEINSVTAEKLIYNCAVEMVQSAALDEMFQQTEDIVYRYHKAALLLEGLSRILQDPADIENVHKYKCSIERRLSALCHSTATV
Chain of PKN1 (human) (Q16512 whole entry, looked up): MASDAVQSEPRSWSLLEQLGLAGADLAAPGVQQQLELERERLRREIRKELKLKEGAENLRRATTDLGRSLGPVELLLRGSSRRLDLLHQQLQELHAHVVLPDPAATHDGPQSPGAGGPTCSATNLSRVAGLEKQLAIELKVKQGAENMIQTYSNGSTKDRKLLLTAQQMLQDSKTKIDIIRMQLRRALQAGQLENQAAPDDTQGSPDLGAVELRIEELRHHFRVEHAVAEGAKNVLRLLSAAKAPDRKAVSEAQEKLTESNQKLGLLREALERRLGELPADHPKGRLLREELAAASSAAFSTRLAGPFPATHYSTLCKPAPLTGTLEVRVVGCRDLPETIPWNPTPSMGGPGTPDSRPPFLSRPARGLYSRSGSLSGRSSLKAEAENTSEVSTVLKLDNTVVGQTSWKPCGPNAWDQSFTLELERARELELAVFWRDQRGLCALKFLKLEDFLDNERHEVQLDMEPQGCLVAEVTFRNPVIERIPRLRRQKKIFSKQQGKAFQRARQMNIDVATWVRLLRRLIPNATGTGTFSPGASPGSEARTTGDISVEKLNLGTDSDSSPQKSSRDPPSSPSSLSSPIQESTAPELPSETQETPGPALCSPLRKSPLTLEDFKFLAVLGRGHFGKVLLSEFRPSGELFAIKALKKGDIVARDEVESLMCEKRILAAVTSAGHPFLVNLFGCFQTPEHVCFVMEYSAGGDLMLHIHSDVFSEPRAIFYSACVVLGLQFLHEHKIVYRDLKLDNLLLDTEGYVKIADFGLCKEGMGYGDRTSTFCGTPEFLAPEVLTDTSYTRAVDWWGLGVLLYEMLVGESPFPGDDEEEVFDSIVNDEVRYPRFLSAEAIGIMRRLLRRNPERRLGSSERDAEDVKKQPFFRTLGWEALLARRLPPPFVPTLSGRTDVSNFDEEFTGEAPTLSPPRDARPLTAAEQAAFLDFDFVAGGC
Chain of CAMK1D (human) (Q8IU85 whole entry, looked up): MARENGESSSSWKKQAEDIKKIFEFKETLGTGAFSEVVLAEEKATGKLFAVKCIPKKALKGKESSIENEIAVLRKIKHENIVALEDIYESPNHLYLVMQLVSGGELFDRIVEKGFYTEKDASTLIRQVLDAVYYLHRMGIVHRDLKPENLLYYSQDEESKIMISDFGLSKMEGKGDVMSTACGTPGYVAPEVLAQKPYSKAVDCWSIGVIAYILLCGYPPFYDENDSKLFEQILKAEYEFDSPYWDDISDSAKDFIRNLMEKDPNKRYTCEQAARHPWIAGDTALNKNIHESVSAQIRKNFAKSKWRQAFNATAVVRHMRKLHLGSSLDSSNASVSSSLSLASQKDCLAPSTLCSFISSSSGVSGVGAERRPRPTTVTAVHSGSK
Chain of CDK4 CCND1 (human) (P11802 whole entry, looked up): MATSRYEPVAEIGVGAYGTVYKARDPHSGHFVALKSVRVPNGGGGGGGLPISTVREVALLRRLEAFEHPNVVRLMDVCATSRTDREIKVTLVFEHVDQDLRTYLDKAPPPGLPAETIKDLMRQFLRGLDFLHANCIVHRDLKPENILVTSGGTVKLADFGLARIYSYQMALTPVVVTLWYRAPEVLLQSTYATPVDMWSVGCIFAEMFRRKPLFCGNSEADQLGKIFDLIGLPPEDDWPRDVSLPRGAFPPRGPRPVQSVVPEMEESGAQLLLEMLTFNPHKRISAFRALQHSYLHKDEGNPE
Chain of CDK4 CCND1 (human) (P24385 whole entry, looked up): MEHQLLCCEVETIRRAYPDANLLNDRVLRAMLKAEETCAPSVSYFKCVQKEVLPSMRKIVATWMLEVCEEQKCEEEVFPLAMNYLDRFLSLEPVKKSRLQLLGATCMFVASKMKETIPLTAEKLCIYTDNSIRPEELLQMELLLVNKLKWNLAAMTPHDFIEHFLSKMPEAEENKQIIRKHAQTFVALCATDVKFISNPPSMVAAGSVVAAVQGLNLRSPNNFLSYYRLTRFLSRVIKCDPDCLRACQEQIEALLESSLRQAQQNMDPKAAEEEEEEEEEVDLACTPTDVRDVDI

| Structure (SMILES) | residual activity (PRKD1 (human)) | residual activity [1] | residual activity (MAP3K10 (human)) | residual activity (NEK9 (human)) | residual activity (SRPK2 (human)) | residual activity (MAPK1 (human)) | residual activity (OXSR1 (human)) | residual activity (MAPKAPK3 (human)) | residual activity (CAMK4 (human)) | residual activity (CAMK1D (human)) | residual activity (STK10 (human)) | residual activity (MST1R (human)) | residual activity (GSK3A (human)) | residual activity (STK25 (human)) | residual activity (STK17A (human)) | residual activity (HIPK4 (human)) | residual activity (YES1 (human)) | residual activity (PRKCD (human)) | residual activity (ROCK2 (human)) | residual activity (MAP2K2 (human)) | further results |
| --- | --- | --- | --- | --- | --- | --- | --- | --- | --- | --- | --- | --- | --- | --- | --- | --- | --- | --- | --- | --- | --- |
| N/C(=N\N=C/c1ccc(-c2cccc([N+](=O)[O-])c2)o1)N[N+](=O)[O-] | 103% | 110% | 101% | 91.8% | 101% | 99.7% | 102% | 95.4% | 95.2% | 96.4% | 99.6% | 97.6% | 108% | 86.3% | 100% | 102% | 95.6% | 94.2% | 86.3% | 78.2% | residual activity (CDK5 CDK5R1 p35 (human)): 89.2%; residual activity (PRKCA (human)): 115%; residual activity (CSNK1G3 (human)): 86.2%; residual activity (ULK2 (human)): 87.3%; residual activity (TSSK1B (human)): 96.7%; residual activity (NLK (human)): 103%; residual activity (TXK (human)): 98.3%; residual activity (PDGFRB (human)): 129%; residual activity (CDK4 CCND1 (human)): 96.6%; residual activity (DYRK3 (human)): 102%; residual activity (NEK11 (human)): 110%; residual activity (FGFR4 (human)): 106%; residual activity (CSNK1D (human)): 99.8%; residual activity (CSNK2A2 (human)): 107%; residual activity (PHKG1 (human)): 101%; residual activity (PKN1 (human)): 93.9%; residual activity (RPS6KB2 (human)): 102%; residual activity (MAPK3 (human)): 88.4%; residual activity (SRMS (human)): 90.2%; residual activity (CAMKK1 (human)): 106% |
| O=S(=O)(NCCNC/C=C/c1ccc(Br)cc1)c1cccc2cnccc12 | 98.7% | 103% | 85.5% | 99.3% | 88.3% | 108% | 95.9% | 97.8% | 95.2% | 85.5% | 89.2% | 97.4% | 94.3% | 104% | 100% | 97.7% | 91.6% | 38.1% | 15.4% | 103% | residual activity (PTK2 (human)): 64.1%; residual activity (PRKCA (human)): 85.7%; residual activity (CSNK1G3 (human)): 93.3%; residual activity (ULK2 (human)): 98.9%; residual activity (TSSK1B (human)): 93.5%; residual activity (NLK (human)): 94.9%; residual activity (TXK (human)): 86.8%; residual activity (PDGFRB (human)): 112%; residual activity (CDK4 CCND1 (human)): 93.9%; residual activity (DYRK3 (human)): 83.5%; residual activity (NEK11 (human)): 92.7%; residual activity (FGFR4 (human)): 85.3%; residual activity (CSNK2A2 (human)): 86.6%; residual activity (PHKG1 (human)): 91.6%; residual activity (PKN1 (human)): 14.3%; residual activity (RPS6KB2 (human)): 71.9%; residual activity (MAPK3 (human)): 84.8%; residual activity (SRMS (human)): 97.8%; residual activity (CAMKK1 (human)): 99.1%; residual activity (EPHA2 (human)): 101% |
